From patent publication US9827229B2, “Small molecule securinine and norsecurinine analogs and their use in cancers, inflammatory diseases and infections” (INVENIO THERAPEUTICS INC., priority 2013, dated 2017)
pIC50: −log10 of the molar value. Where two headings read alike, the source gives them in different places.

How the values were obtained:
SKOV3 P53−/− = assay: Growth inhibition of ovary cancer SKOV3 P53−/−; format: cell-based
Text: (§1) The analogs were then further tested for inhibiting growth against various cancer cell lines: AML (Mol3, OCI), Colon cancer (HCT116) and Ovary cancer (SKOV3). IC50 are documented in Table 2.

SKOV3 P53+/+ = assay: Growth inhibition of ovary cancer SKOV3 P53+/+; format: cell-based
Text: as §1

HCT116 P53+/+ = assay: Growth inhibition of colon cancer HCT116 P53+/+; format: cell-based
Text: as §1

HCT116 P53−/− = assay: Growth inhibition of colon cancer HCT116 P53−/−; format: cell-based
Text: as §1

MOL3 = assay: Growth inhibition of AML cell line MOL3; format: cell-based, human
Text: as §1

HL60 cells = assay: Growth of HL60 cells (IC50); format: cell-based, human; conditions: growth, no unit in head or cell (other cells of the column print uM), read-out: HL-60, IC50
Procedure: The analogs were then tested and evaluated on the ability to affect differentiation and growth of HL60 cells.

OCI = assay: Growth inhibition of AML cell line OCI; format: cell-based, human
Text: as §1

mice = assay: Seizures in mice; format: in vivo; conditions: due to GABA receptor binding
Text: The present invention provides for methods of treating a condition as described herein with less adverse additional effects. As is known in the art, securinine antagonizes the GABAA receptor.

[1] = Homo sapiens, SK-OV-3, ovary cancer SKOV3 P53−/−
[2] = Homo sapiens, SK-OV-3, ovary cancer SKOV3 P53+/+
[3] = Homo sapiens, HCT-116, colon cancer HCT116 P53+/+
[4] = Homo sapiens, HCT-116, colon cancer HCT116 P53−/−

SMILES | pIC50 (SKOV3 P53−/−; [1]) | pIC50 (SKOV3 P53+/+; [2]) | pIC50 (HCT116 P53+/+; [3]) | pIC50 (HCT116 P53−/−; [4]) | pIC50 (MOL3; Homo sapiens) | pIC50 (OCI; Homo sapiens) | other results
N#Cc1ccc(C#CC2=C[C@@H]3C[C@@]4(OC(=O)C=C24)[C@H]2CCCCN32)cc1 [INVS-MG-164B] | 5.38 | 5.17 | 5.28 | 5.19 | – | – | –
COc1ccc2cc(C#CC3=C[C@@H]4C[C@@]5(OC(=O)C=C35)[C@H]3CCCCN43)ccc2c1 [INVS-MG-157B] | 6.15 | > 6.22 | 6.15 | 6.05 | 7.05 | – | IC50 (HL60 cells; Homo sapiens, HL-60, HL-60 cells): 0.07 to 0.156 µM
O=C1C=C2C(C#Cc3ccsc3)=C[C@@H]3C[C@@]2(O1)[C@H]1CCCCN31 [INVS-MG-136-III] | – | – | – | – | – | – | pIC50 (SKOV3 P53−/−; ovary cancer SKOV3 P53−/−): 5.96; pIC50 (SKOV3 P53+/+; ovary cancer SKOV3 P53+/+): 6.15; pIC50 (HCT116 P53+/+; colon cancer HCT116 P53+/+): 5.74; pIC50 (HCT116 P53−/−; colon cancer HCT116 P53−/−): 5.66; pIC50 (MOL3): 7.00; IC50 (HL60 cells; HL-60 cells): < 0.07 µM; pIC50 (OCI): 6.94
O=C1C=C2C(I)=C[C@@H]3C[C@@]2(O1)[C@H]1CCCCN31 [INVS-MG-82-II] | 5.51 | 5.80 | 5.85 | 5.96 | 7.05 | 7.00 | –
COc1ccc(C#CC2=C[C@@H]3C[C@@]4(OC(=O)C=C24)[C@H]2CCCCN32)cc1 [INVS-MG-134C] | 5.55 | 5.92 | 6.00 | 5.96 | 7.22 | 7.10 | –
O=C1C=C2C(C#Cc3ccccc3)=C[C@@H]3C[C@@]2(O1)[C@H]1CCCCN31 [INVS-MG-110B] | 5.52 | 5.68 | 5.72 | 5.64 | 7.15 | 7.10 | –
CCOC#CC1=C[C@@H]2C[C@@]3(OC(=O)C=C13)[C@H]1CCCCN21 [INVS-MG-120A] | 5.59 | 5.72 | 5.80 | 5.68 | – | – | –
COc1cccc(C#CC2=C[C@@H]3C[C@@]4(OC(=O)C=C24)[C@H]2CCCCN32)c1 [INVS-MG-165B] | 5.46 | 5.44 | 5.49 | 5.38 | – | – | –
O=C1C=C2C=C[C@@H]3C[C@@]2(O1)[C@H]1CCCCN31 [Securinine] | – | – | – | – | – | – | seizures in mice (mice): causes seizures
O=C1C=C2C(C#Cc3ccc(OC(F)(F)F)cc3)=C[C@@H]3C[C@@]2(O1)[C@H]1CCCCN31 [INVS-MG-166B] | 5.49 | 5.46 | 5.62 | 5.42 | < 6.52 | < 6.52 | –
O=C1C=C2C(C#Cc3ccsc3)=C[C@@H]3C[C@@]2(O1)[C@H]1CCCCN31 [INVS-MG-136B] | – | – | 5.66 | 5.68 | 7.22 | – | pIC50 (SKOV3 P53−/−; ovary cancer SKOV3 P53−/−): 5.54; pIC50 (SKOV3 P53+/+; ovary cancer SKOV3 P53+/+): 5.55
CN(C)CC#CC1=C[C@@H]2C[C@@]3(OC(=O)C=C13)[C@H]1CCCCN21 [INVS-MG-111B] | 5.55 | 5.74 | 5.96 | 5.82 | 7.15 | 7.05 | –
CN(C)c1ccc(C#CC2=C[C@@H]3C[C@@]4(OC(=O)C=C24)[C@H]2CCCCN32)cc1 [INVS-MG-146B] | 6.10 | 6.15 | 6.10 | 5.74 | – | – | –
CCCN(CC#CC1=C[C@@H]2C[C@@]3(OC(=O)C=C13)[C@H]1CCCCN21)CCC [INVS-MG-152A] | 6.15 | > 6.22 | 6.05 | 5.72 | 7.10 | 7.15 | –
O=C1C=C2C(C#Cc3cc4ccccc4c4ccccc34)=C[C@@H]3C[C@@]2(O1)[C@H]1CCCCN31 [INVS-MG-158B] | 5.51 | 5.92 | 5.92 | 5.64 | – | – | –
N#CCCCC#CC1=C[C@@H]2C[C@@]3(OC(=O)C=C13)[C@H]1CCCCN21 [INVS-MG-125A] | 5.62 | 5.89 | 5.89 | 5.70 | – | – | –
C=C(C)CC#CC1=C[C@@H]2C[C@@]3(OC(=O)C=C13)[C@H]1CCCCN21 [INVS-MG-132A] | 5.42 | 5.62 | 5.62 | 5.66 | – | 6.70 | –
